Test results from ChEMBL document CHEMBL2311506, “Novel benzoxazole inhibitors of mPGES-1” (Bioorg Med Chem Lett, 2013).

Tests used:
Prostaglandin E synthase = molecular target: T1, Prostaglandin E synthase (Homo sapiens, UniProt O14684); experiment: Inhibition of human recombinant mPGES-1 using PGH2 as substrate incubated 20 mins prior to substrate addition measured after 30 secs by EIA
T1 sequence (O14684 whole entry): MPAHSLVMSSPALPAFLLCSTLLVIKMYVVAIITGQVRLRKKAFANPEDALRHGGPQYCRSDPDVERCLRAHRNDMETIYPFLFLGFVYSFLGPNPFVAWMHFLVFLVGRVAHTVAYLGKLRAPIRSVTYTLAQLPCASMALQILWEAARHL

[1] = Inhibition of rat mPGES-1 transfected in CHOK1 cells using [3H]PGH2 as substrate; type: cell-based; conditions: cho-k1
[2] = Plasma protein binding in human; type: ADME, cell-free; conditions: read-out: PPB (converted)
[3] = molecular target: T2, Prostaglandin G/H synthase 2 (Homo sapiens, UniProt P35354); experiment: Inhibition of COX2 in human fetal fibroblast assessed as SnCl2-induced PGF2alpha production after 40 mins by ELISA
T2 sequence (P35354 whole entry): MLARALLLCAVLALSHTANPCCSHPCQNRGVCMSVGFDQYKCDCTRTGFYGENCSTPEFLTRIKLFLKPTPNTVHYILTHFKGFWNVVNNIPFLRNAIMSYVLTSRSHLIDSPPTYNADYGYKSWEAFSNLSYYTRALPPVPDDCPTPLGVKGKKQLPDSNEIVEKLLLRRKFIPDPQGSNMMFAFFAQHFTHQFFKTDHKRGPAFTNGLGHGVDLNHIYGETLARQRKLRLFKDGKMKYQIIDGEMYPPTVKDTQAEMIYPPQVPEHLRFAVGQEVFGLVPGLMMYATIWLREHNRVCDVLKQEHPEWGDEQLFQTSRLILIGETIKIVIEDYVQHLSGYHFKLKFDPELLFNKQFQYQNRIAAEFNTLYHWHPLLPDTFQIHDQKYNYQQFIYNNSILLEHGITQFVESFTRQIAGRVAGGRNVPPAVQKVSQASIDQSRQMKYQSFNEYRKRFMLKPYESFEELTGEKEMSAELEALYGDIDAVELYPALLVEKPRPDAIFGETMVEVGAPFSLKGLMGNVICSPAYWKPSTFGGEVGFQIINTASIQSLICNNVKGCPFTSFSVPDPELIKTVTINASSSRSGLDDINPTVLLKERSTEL

[4] = Half life in dog at 0.25 mg/kg, iv; type: ADME, organism-based, Canis lupus familiaris; set-up: dose 0.25 mg/kg, route intravenous; conditions: in vivo
[5] = Plasma protein binding in rat; type: ADME, cell-free; conditions: read-out: PPB (converted)
[6] = Permeability of the compound by pampa; type: ADME; conditions: read-out: permeability
[7] = Cmax in dog at 0.5 mg/kg, po; type: ADME, organism-based, Canis lupus familiaris; set-up: dose 0.5 mg/kg, route oral; conditions: in vivo
[8] = molecular target: Hematopoietic prostaglandin D synthase (Homo sapiens, UniProt O60760); experiment: Inhibition of human PGDS
[9] = Half life in human liver microsomes; type: ADME, Microsome
[10] = Half life in rat liver microsomes; type: ADME, Microsome
[11] = Volume of distribution at steady state in dog at 0.25 mg/kg, iv; type: ADME, organism-based, Canis lupus familiaris; set-up: dose 0.25 mg/kg, route intravenous; conditions: in vivo, read-out: Vdss
[12] = Inhibition of recombinant rat mPGES-1 using PGH2 as substrate incubated 20 mins prior to substrate addition measured after 30 secs by EIA
[13] = Half life in human hepatocytes; type: ADME, cell-based, Hepatocyte
[14] = Oral bioavailability in dog at 0.5; type: ADME, organism-based, Canis lupus familiaris; conditions: in vivo
[15] = Mean residence time in dog at 0.25 mg/kg, iv; type: ADME, organism-based, Canis lupus familiaris; set-up: dose 0.25 mg/kg, route intravenous; conditions: in vivo
[16] = Tmax in dog at 0.5 mg/kg, po; type: ADME, organism-based, Canis lupus familiaris; set-up: dose 0.5 mg/kg, route oral; conditions: in vivo

Chain of Hematopoietic prostaglandin D synthase (O60760 whole entry): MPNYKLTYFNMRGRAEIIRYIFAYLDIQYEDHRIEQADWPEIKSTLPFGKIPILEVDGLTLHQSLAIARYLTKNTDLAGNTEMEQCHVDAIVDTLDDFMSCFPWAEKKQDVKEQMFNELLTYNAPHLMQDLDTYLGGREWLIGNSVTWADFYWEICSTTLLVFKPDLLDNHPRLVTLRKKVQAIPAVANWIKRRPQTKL

SMILES | IC50 (Prostaglandin E synthase) | further results
O=C(NC1CCCC1C(=O)O)C1CCN(c2nc3cc(Cl)ccc3o2)CC1 (stereo unspecified) | 7180 nM | –
CC(C)c1ccc2c(c1)c(SC(C)(C)C)c(CC(C)(C)C(=O)O)n2Cc1ccc(Cl)cc1 | – | IC50 [1]: 8.2 µM
O=C(NC1CCC1)C1CCN(c2nc3cc(Cl)ccc3o2)CC1 | 3010 nM | –
O=S(=O)(NC1CCCC1)C1CCN(c2nc3cc(Cl)ccc3o2)CC1 | > 10000 nM | –
O=C(CCCNc1nc2cc(Cl)ccc2o1)NC1CCCC1 | > 10000 nM | –
CO[C@@H]1CCC[C@H]1NC(=O)C1CCN(c2nc3cc(Cl)ccc3o2)CC1 | 8150 nM | –
O=C(NC1CCCC1)N1CCN(c2nc3cc(Cl)ccc3o2)CC1 | > 10000 nM | –
O=C(NC1CCCC1)C1CCN(c2nc3cc(Cl)ccc3o2)CC1 | – | IC50 [3]: > 100 µM; fraction unbound [2]: 0.005
O=C(NC1CCCC1)N1CCCN(c2nc3cc(Cl)ccc3o2)CC1 | 12900 nM | –
O=C(N[C@H]1CCC[C@@H]1OCc1ccccc1)C1CCN(c2nc3cc(Cl)ccc3o2)CC1 | – | half-life [4]: 432 min; IC50 [3]: > 100 µM; fraction unbound [5]: 0.02; Papp [6]: 1.3 ×10⁻⁶ cm/s; Cmax [7]: 1300 nM; IC50 [8]: > 10 µM; half-life [9]: 10.8 min; half-life [10]: 7.2 min; Vd [11]: 1 L/kg; IC50 [12]: > 10 µM; half-life [13]: 80 min; bioavailability [14]: 55%; MRT [15]: 8.1 h; Tmax [16]: 30 min
O=C(N[C@H]1CCC[C@@H]1CO)C1CCN(c2nc3cc(Cl)ccc3o2)CC1 | 3200 nM | –
CN(C(=O)C1CCN(c2nc3cc(Cl)ccc3o2)CC1)C1CCCC1 | > 30000 nM | –

Second part, led by results:

IC50 (Prostaglandin E synthase) | SMILES | further results
826 nM | CCCCO[C@@H]1CCC[C@H]1NC(=O)C1CCN(c2nc3cc(Cl)ccc3o2)CC1 | –
1200 nM | CSCCNC(=O)C1CCN(c2nc3cc(Cl)ccc3o2)CC1 | –
291 nM | O=C(NC1CCCC1c1ccccc1)C1CCN(c2nc3cc(Cl)ccc3o2)CC1 (stereo unspecified) | –
821 nM | O=C(NC1CCCCCC1)C1CCN(c2nc3cc(Cl)ccc3o2)CC1 | –
176 nM | O=C(N[C@@H]1CCC[C@H]1OCC1CCCC1)C1CCN(c2nc3cc(Cl)ccc3o2)CC1 | –
34 nM | O=C(N[C@H]1CCC[C@@H]1COc1ccccc1)C1CCN(c2nc3cc(Cl)ccc3o2)CC1 | fraction unbound [2]: < 0.01
785 nM | O=C(N[C@@H]1CCC[C@@H]1CO)C1CCN(c2nc3cc(Cl)ccc3o2)CC1 | –
242 nM | CC1CCCC1NC(=O)C1CCN(c2nc3cc(Cl)ccc3o2)CC1 (stereo unspecified) | –
43.1 nM | O=C(N[C@@H]1CCC[C@@H]1COc1ccccc1)C1CCN(c2nc3cc(Cl)ccc3o2)CC1 | –
